Like-named read-outs stand apart in the source and are kept apart here.
Tests used:
[1] = tested on: influenza; experiment: influenza of the applicant; type: in vivo, human; settings: small dose
Source text: Such irreversible substrate concept has been postulated as an oxidase enzyme inhibitor which the applicant agrees is correct in context that such is a protease inhibitor and not an oxidase inhibitor. Such concept provides a hypothesis that logically explains all hydrazide biological prior art phenomena and can predict the prodrug type irreversible substrate action of any simple or low molecular weight hydrazide molecule. The irreversible substrate type protease inhibitor idea is also in agreement with the antidepressant drug explanation and working model, and the Malazide explanation and working model, and was predicted and illustrated by the mouse fetus experiment, and additionally concurs with the Marboran antiviral working model and explanation. […] And following a long period of time where no research was conducted due to family tragedies and related obstruction, the applicant returned to such work where the MAOI type hydrazide, Iproniazid, was then successfully used to target and shutdown protein biosynthesis in cells that hosted malignant disease mechanisms comprising various types of cancers and viral infections. […]

[2] = tested on: HIV; type: in vivo, human
[3] = tested on: basal cell carcinoma; experiment: basal cell carcinoma of the applicant; type: in vivo, human; settings: during the melanoma treatment
Source text: A second more benign cancer growth coexisted at the same time while the melanoma treatment was ongoing which was of the basal cell carcinoma type which was not very noticeable, bothersome, or believed to be life threatening, but which also disappeared following the hydrazide melanoma treatment. The basal cell carcinoma was located below the left eye on the applicant's cheek which was characterized by a hard, gritty, cellular formation where scratching or rubbing the surface would dislodge some of the small hard cells which is a common characteristic of basal cell carcinoma. Although the condition was not apparent or at a life threatening stage at the time, and had never raised concerns or the idea of providing opportunity for Iproniazid screening as the melanoma cancer did, it was nevertheless inadvertently shutdown by Iproniazid and had likewise disappeared. Such successful use of Iproniazid as a cancer treatment method constitutes a new cancer treatment use for the MAOI hydrazide product.

[4] = in vivo; cited from earlier work
[5] = tested on: Kaposi's Sarcoma; experiment: Kaposi's Sarcoma of the applicant; design: species or system human; settings: in vivo
[6] = tested on: fetal cells; type: in vivo; settings: offspring
[7] = Public Health Service Pub. No.1589 (1967); cited from earlier work
[8] = tested on: bacterial gastroenteritis; experiment: bacterial gastroenteritis of the applicant; type: in vivo, human; settings: 100 mg dose with warm tap water
[9] = tested on: tuberculosis organism; settings: Fox, 1952; cited from earlier work
[10] = cited from earlier work
[11] = tested on: viral conjunctivitis; experiment: viral conjunctivitis of the applicant; type: in vivo, human; settings: single dose of about 100 mg
[12] = tested on: malignant melanoma; experiment: malignant melanoma of the applicant; type: in vivo, human; settings: about 100 mg daily for about three or four weeks
Source text: The MAOI hydrazide anticancer concept was reduced to practice by the applicant when an impromptu opportunity appeared after a decade old mole began to metastasize. The growth was about a half inch in diameter located in the center of the applicant's forehead, and had remained stable, symmetrical, and unchanged for years when it began to increase in size, shape, and having mixed pigmentation indicative of malignant melanoma. At such time the applicant began a treatment regimen based on Iproniazid Phosphate at about 100 mg daily for about three or four weeks when the perimeter of the growth began to separate from the skin surface underneath and itch. The applicant would unconsciously pick at the protruding edge as if picking at a scab which served to more quickly separate the neoplastic part at its perimeter where sections were peeled away.

[13] = tested on: polio; settings: Thompson, about 1953; cited from earlier work
[14] = tested on: smallpox; settings: Thompson, about 1953; cited from earlier work
[15] = 1500 mg to 3000 mg daily; cited from earlier work

## CC(C)NNC(=O)c1ccncc1 [Iproniazid, Isonicotinic acid 2-isopropylhydrazide]
[1]
  effect on influenza: very rapid recovery
[2]; after planned research was completed
  outcome after completed treatment study: the virus was eradicated in total
[3]
  effect on basal cell carcinoma: disappeared
[4]
  cytotoxic effects: no cytotoxic effects
[5]
  effect on Kaposi's Sarcoma: inhibit and shutdown
[6]
  outcome of fetal cell division and growth shutdown in pregnant mice: birth of all healthy mice that matured normally to provide midget size adults
[7]
  lethal dose for mice: 1760 mg/kg
[8]
  time until all pain and griping had disappeared: ≤ 10 min
  time until most pain was gone: ≤ 5 min
[9]
  tuberculostatic activity: did not appear to kill the tuberculosis organism

## NNC(=O)c1ccncc1 [Isoniazid, Isonicotinic acid hydrazide]
[10]; in vivo
  fraction converted by metabolism to the hydrazide (acetyl) metabolite: 50%
[9]
  tuberculostatic activity: exceeded all other substances screened

## Iproniazid phosphate
[2]; after several weeks
  course after the single dose: the virus begin to return
[2]; single dose of about 100 mg, applicant
  effect of initial single dose on HIV viral activity: shutdown the viral activity seemingly in total
[11]
  effect on viral conjunctivitis: disappearance of the inflamation of the conjunctiva
[12]
  effect on malignant melanoma growth: removed in total

## NN [hydrazine]
[10]; Fox
  fraction converted by metabolism to the hydrazide (acetyl) metabolite: about 50%

## CN1C(=O)C(=NNC(N)=S)c2ccccc21 [Marboran, 1-Methylindole-2,3,-dione 3 thiosemicarbazone]
[13]
  antiviral action against polio: effective
[14]
  antiviral action against smallpox: effective
[15]
  side effects accompanying use: nausea and vomiting

From US20070015815A1, “Hydrazide substrate shuts down protein biosynthesis capability in cells that host a metastatic or malignant disease mechanism” (priority 2003, published 2007)
